Measurements reported in ChEMBL document CHEMBL1156915, “Synthesis of new thienyl ring containing HIV-1 protease inhibitors: promising preliminary pharmacological evaluation against recombinant HIV-1 proteases” (J Med Chem, 2010).

Columns and labels:
[1] = target: Protease (Human immunodeficiency virus 1) (UniProt Q9YQ12); assay: Inhibition of recombinant wild type HIV1 protease assessed as residual activity at 1 nM by fluorogenic substrate assay; values are per cent of control
[2] = tested on: Human immunodeficiency virus type 1 protease (Human immunodeficiency virus 1), Q72874 [V32I]; assay: Inhibition of recombinant HIV1 protease V32I mutant assessed as residual activity at 1 nM by fluorogenic substrate assay; values are per cent of control
[3] = target: Protease (Human immunodeficiency virus 1) (UniProt Q9YQ12); assay: Inhibition of recombinant HIV1 protease assessed as residual activity at 10 nM by fluorogenic substrate assay; values are per cent of control
[4] = tested on: Human immunodeficiency virus type 1 protease (Human immunodeficiency virus 1), Q72874 [V82A]; assay: Inhibition of recombinant HIV1 protease V82A mutant assessed as residual activity at 1 nM by fluorogenic substrate assay; values are per cent of control
Protease = Protease (Human immunodeficiency virus 1, UniProt Q9YQ12); assay: Inhibition of recombinant wild type HIV1 protease assessed as hydrolysis of fluorogenic substrate
[5] = tested on: Human immunodeficiency virus type 1 protease (Human immunodeficiency virus 1), Q72874 [V32I]; assay: Inhibition of recombinant HIV1 protease V32I mutant assessed as residual activity at 10 nM by fluorogenic substrate assay; values are per cent of control

Protease (Human immunodeficiency virus 1), sequence (Q9YQ12 as listed by the source): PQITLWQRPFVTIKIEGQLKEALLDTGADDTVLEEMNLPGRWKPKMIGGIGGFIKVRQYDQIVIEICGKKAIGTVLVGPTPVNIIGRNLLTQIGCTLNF
Protease, sequence (Q9YQ12 whole entry): as the sequence (Q9YQ12 as listed by the source) above

Compound | IC50 (Protease) [nM] | other results
Cc1c(O)cccc1C(=O)N[C@@H](Cc1cccs1)[C@H](O)CN1C[C@H]2CCCC[C@H]2C[C@H]1C(=O)NC(C)(C)C | 2.9 | residual activity [1]: 34%; residual activity [2]: 97%; residual activity [3]: 5%; residual activity [4]: 60%; residual activity [5]: 32%
CC(C)(C)NC(=O)[C@@H]1C[C@@H]2CCCC[C@@H]2CN1C[C@@H](O)[C@H](Cc1cccs1)NC(=O)C(CC(N)=O)NC(=O)c1ccc2ccccc2n1 (single isomer, unassigned) | 21 | 
CC(C)(C)NC(=O)[C@@H]1C[C@@H]2CCCC[C@@H]2CN1C[C@@H](O)[C@@H](NC(=O)[C@H](CC(N)=O)NC(=O)c1ccc2ccccc2n1)c1cccs1 | 5000 | 
CC(C)(C)NC(=O)[C@@H]1C[C@@H]2CCCC[C@@H]2CN1C[C@@H](O)[C@H](Cc1cc(-c2ccccc2)cs1)NC(=O)C(CC(N)=O)NC(=O)c1ccc2ccccc2n1 (single isomer, unassigned) | 1.2 | 
CC(C)(C)NC(=O)[C@@H]1C[C@@H]2CCCC[C@@H]2CN1C[C@@H](O)[C@H](Cc1cc2ccccc2s1)NC(=O)C(CC(N)=O)NC(=O)c1ccc2ccccc2n1 (single isomer, unassigned) | 0.6 | residual activity [1]: 53%; residual activity [4]: 37%
Cc1c(O)cccc1C(=O)N[C@@H](CSc1ccccc1)[C@H](O)CN1C[C@H]2CCCC[C@H]2C[C@H]1C(=O)NC(C)(C)C | 1.9 | 

More lines, in order of falling IC50 (Protease), values ahead:

IC50 (Protease) [nM] | Compound | other results
30000 | Cc1c(O)cccc1C(=O)N[C@@H](c1cccs1)[C@H](O)CN1C[C@H]2CCCC[C@H]2C[C@H]1C(=O)NC(C)(C)C | 
4000 | Cc1c(O)cccc1C(=O)N[C@@H](c1cc(-c2ccccc2)cs1)[C@H](O)CN1C[C@H]2CCCC[C@H]2C[C@H]1C(=O)NC(C)(C)C | 
1500 | CC(C)(C)NC(=O)[C@@H]1C[C@@H]2CCCC[C@@H]2CN1C[C@@H](O)[C@@H](NC(=O)[C@H](CC(N)=O)NC(=O)c1ccc2ccccc2n1)c1cc(-c2ccccc2)cs1 | 
15 | Cc1c(O)cccc1C(=O)N[C@@H](Cc1cc2ccccc2s1)[C@H](O)CN1C[C@H]2CCCC[C@H]2C[C@H]1C(=O)NC(C)(C)C | 
6 | Cc1c(O)cccc1C(=O)N[C@@H](Cc1cc(-c2ccccc2)cs1)[C@H](O)CN1C[C@H]2CCCC[C@H]2C[C@H]1C(=O)NC(C)(C)C | 
